Laboratory results from PMC9253294, “Differential Activation of TRPM8 by the Stereoisomers of Menthol” (Frontiers in Pharmacology, 2022).

What was measured:
[1] = molecular target: T1, mouse TRPM8 (Mus musculus, UniProt Q8R4D5); assay: Whole-cell patch-clamp recordings of wild-type TRPM8 in transfected HEK293T cells; assay type: cell-based; details: for maximum current activated: −80 mV, normalized to 2 mM (−)-menthol; for EC50: WT TRPM8, whole-cell, ~25°C
T1 construct: expressed in transfected cells; host or cells: HEK293T
T1 sequence (Q8R4D5 whole entry): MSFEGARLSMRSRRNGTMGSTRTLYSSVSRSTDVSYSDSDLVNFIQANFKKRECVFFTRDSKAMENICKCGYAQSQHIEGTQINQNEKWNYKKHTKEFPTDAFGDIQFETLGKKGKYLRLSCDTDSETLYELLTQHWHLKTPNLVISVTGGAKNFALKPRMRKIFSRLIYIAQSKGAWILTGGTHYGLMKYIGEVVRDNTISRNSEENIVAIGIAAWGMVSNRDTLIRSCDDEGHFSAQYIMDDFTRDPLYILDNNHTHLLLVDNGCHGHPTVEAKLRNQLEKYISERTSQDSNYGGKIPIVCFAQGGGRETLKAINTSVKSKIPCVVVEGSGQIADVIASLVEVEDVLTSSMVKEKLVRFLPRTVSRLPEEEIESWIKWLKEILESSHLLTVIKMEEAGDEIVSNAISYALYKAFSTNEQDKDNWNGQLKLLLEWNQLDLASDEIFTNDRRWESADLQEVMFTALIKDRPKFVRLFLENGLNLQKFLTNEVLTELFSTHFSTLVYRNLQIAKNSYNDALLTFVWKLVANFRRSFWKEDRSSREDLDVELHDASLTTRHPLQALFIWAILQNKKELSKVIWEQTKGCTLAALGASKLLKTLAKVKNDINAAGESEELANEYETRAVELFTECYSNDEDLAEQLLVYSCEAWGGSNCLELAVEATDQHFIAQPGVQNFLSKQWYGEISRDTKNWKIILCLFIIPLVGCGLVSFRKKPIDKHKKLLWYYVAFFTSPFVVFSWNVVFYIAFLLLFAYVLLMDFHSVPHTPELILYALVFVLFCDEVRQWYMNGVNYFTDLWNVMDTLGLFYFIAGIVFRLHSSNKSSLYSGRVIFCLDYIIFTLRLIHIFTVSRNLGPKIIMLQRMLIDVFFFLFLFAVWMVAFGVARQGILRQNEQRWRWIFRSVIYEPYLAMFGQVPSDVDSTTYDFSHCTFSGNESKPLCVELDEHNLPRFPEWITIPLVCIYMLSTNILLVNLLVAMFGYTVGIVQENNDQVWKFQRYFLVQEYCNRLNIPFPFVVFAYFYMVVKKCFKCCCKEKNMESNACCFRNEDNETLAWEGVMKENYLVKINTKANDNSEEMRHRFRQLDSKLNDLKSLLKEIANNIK
Experimental: (§1) Murine TRPM8 was used in this study. […] Point mutations were made by Fast Mutagenesis Kit V2 (SBS Genetech). Primers were used to generate point mutations.
(§2) HEK293T cells were cultured in Dulbecco’s modified eagle medium supplemented (DMEM) with 10% fetal bovine serum and 1% penicillin-streptomycin solution at 37°C with 5% CO2. When cells grow up to 60%–70%, plasmids were transfected with lipofectamine 2000 following the manufacturer’s protocol. Patch-clamp recordings were performed 18–24 h after transfection.
(§3) Patch-clamp recordings were performed using a HEKA EPC10 amplifier driven by PatchMaster software (HEKA). Patch pipettes were prepared from borosilicate glass and fire-polished to a resistance of 4–6MΩ. A solution (pH 7.25) containing 130 mM NaCl, 0.2 mM EDTA, and 3 mM HEPES was used in both bath and pipette for recording. For whole-cell recording, cells were detached by trypsin and plated on the microscope cover glass for 30–60 min before the experiment. Transfected cells could be identified by green fluorescence. Cells were clamped at +80 mV and −80 mV for 350 ms, respectively, during recording, and the average current in the last 40 ms was performed. All recordings were performed at room temperature (∼25°C).
To perfuse (−)-menthol and other isomers during the patch-clamp recording, a rapid solution changer with a gravity-driven perfusion system was used (RSC-200, Bio-Logic). Each solution was delivered through a separate tube, so there was no mixing of solutions. The pipette tip was placed right in front of the perfusion outlet during recording to ensure the solution exchange was complete.
Data from whole-cell recordings were analyzed in Igor Pro (WaveMatrix). EC50 values were derived from fitting a Hill equation to the concentration–response relationship. Changes in EC50 by point mutation may be caused by either perturbation of ligand binding or channel gating or both. To distinguish these possibilities, the dissociation constant (K d) for ligand binding is estimated assuming the following gating scheme: C0↔KdC1↔LO, where L is the equilibrium constant for the final closed-to-open transition.
For TRPM8 activation by other stereoisomers, P o max was measured from the concentration–response curve and L was determined from P o max by L = P o max/(1 − P o max). Both K d and L contribute to the measured apparent affinity by the equation EC50 = K d/(1 + L).

[2] = tested on: residue I846 in the S4 of TRPM8; assay: Thermodynamic mutant cycle analysis (TMCA) with patch-clamp recordings, residue I846 (I846V mutant); assay type: cell-based, mouse; details: WT vs I846V
Experimental: as §1, §2
as §3, with “All recordings were performed at room temperature (∼25°C).” left out
(§4) Data from whole-cell recordings were analyzed in Igor Pro (WaveMatrix). […]
(§5) The P o of mouse TRPM8 activated by (−)-menthol was measured through single-channel recordings as in our previous study ([Xu et al., 2020]), and P o of TRPM8 mutant channels activated by (−)-menthol was estimated from noise analysis through whole-cell recordings. The mean current amplitude (I), the squared deviations in current amplitude from the mean value (σ ^2), and the single-channel current (i) were measured experimentally from a membrane patch of ion channels. Then, the number of ion channels clamped into that patch (N) is determined as N=I^2/i⋅I−σ^2.
For TRPM8 activation by other stereoisomers, P o max was measured from the concentration–response curve and L was determined from P o max by L = P o max/(1 − P o max). Both K d and L contribute to the measured apparent affinity by the equation EC50 = K d/(1 + L). […]

[3] = parameters: method as in Hopp, 1993; Barel et al., 2009; details: human taste dilution studies; ref Hopp, 1993; Barel et al., 2009; cited from earlier work
[4] = tested on: residue D802 in the S3 of TRPM8; assay: Thermodynamic mutant cycle analysis (TMCA) with patch-clamp recordings, residue D802; assay type: cell-based, mouse; details: cycle (−)-menthol vs (+)-neomenthol, WT vs D802 mutant
Experimental: as §1, §2
Patch-clamp recordings were performed using a HEKA EPC10 amplifier driven by PatchMaster software (HEKA). […] Transfected cells could be identified by green fluorescence. […]
as §4
as §5, with “N=I^2/i⋅I−σ^2. […]” for “N=I^2/i⋅I−σ^2.”

[5] = molecular target: T2, TRPM8 R842K mutant (Mus musculus, UniProt Q8R4D5, R842K); assay: Whole-cell patch-clamp recordings of the R842K mutant channel; assay type: cell-based; details: −80 mV
T2 construct: expressed in transfected cells; host or cells: HEK293T
T2 sequence (Q8R4D5 whole entry R842K): as the sequence (Q8R4D5 whole entry) above, with R842K counted along it
Experimental: as §1, §2, §3
To perfuse (−)-menthol and other isomers during the patch-clamp recording, a rapid solution changer with a gravity-driven perfusion system was used (RSC-200, Bio-Logic). […]

[6] = +80 mV, compared to (−)-menthol

SMILES | Kd (binding affinity from gating scheme) [1, 6] | maximum current activated [1] | coupling energy ([2]; +80 mV, cycle (−)-menthol vs (+)-neoisomenthol) | coupling energy ([2]; −80 mV, cycle (−)-menthol vs (+)-neoisomenthol) | cooling thresholds [3] | L value (gating equilibrium constant) [1, 6] | EC50 ([1]; +80 mV) | coupling energy ([2]; ±80 mV, cycle (−)-menthol vs (+)-neomenthol, threshold 1.5 kT) | coupling energy ([4]; +80 mV) | coupling energy ([4]; −80 mV) | activation of the R842K mutant [5]
CC(C)[C@H]1CC[C@@H](C)C[C@H]1O [(+)-neoisomenthol] | slightly decreased affinity | much reduced | 3.25 ± 0.11 kT | 3.10 ± 0.18 kT | much higher cooling thresholds |  |  |  |  |  | 
CC(C)[C@@H]1CC[C@@H](C)C[C@@H]1O [(+)-neomenthol] | slightly decreased affinity | much reduced |  |  |  | significantly reduced | 206 ± 11.4 µM | large coupling energy values | 1.81 ± 0.10 kT | 2.12 ± 0.06 kT | cannot activate
CC(C)[C@@H]1CC[C@@H](C)C[C@H]1O [(−)-menthol] |  |  |  |  | lowest cooling thresholds |  | 62.6 ± 1.2 µM |  |  |  | 
